We go through 86 compounds from a melting point compilation (Tetko et al.; mined from patent text by program, amines drawn as free bases though some values may be those of a salt).

Usually melting point stands for the temperature, or range, at which the solid turns liquid. Take `Cc1cc2c(s1)N(C(C)C)c1ccccc1N=C2N1CCN(C)CC1`: the melting point was in the range of 120 to 121 °C.

The compound `O=C(CCc1ccc(OCCS(=O)(=O)CCOC(c2ccc(Cl)cc2)c2ccc(Cl)cc2)cc1)C(F)(F)F` registered a melting point of 98 to 100 °C.

The compound `COc1c(C2CCN(CCCCNC(=O)c3ccc(-c4ccc(Cl)cc4)c(OCC(N)=O)c3)CC2)ccc2c1CCCC2` came in with a melting point of 198 °C.

The compound `CCCCCCCCC1C=CC(Oc2ccc(C(=O)O)o2)=C2N=C3CCCCC3=C21` (stereo unspecified) yielded a melting point of 130 to 132 °C.

As for `CC(C)C[C@H](NC(=O)OC(C)(C)C)[C@@H](O)CC(=O)NN1CCN(c2cccc(C(F)(F)F)c2)CC1`, the melting point was in the range of 107 to 109 °C.

`COC(=O)c1c(C(=O)OC)c2sc3ccccc3n2c1C` yielded a melting point of 143 to 144 °C.

Take `COc1ccc(CC(=O)c2ccc(OCc3ccccc3)cc2)cc1`: the melting point fell in the range of 147 to 148 °C.

`CC(=NO)C(C)(C)NCCN(C)NC(C)(C)C(Cn1ccnc1[N+](=O)[O-])=NO` came in with a melting point of 156 to 158 °C.

`Cc1cc(-c2cnn3c(C(F)(F)F)cc(-c4ccc(Cl)cc4)nc23)cc(C)n1` displayed a melting point of 256 °C.

`CCc1nc(-c2ccco2)c2ncn(Cc3ccc(OC)cc3)c2n1`: the melting point fell in the range of 119 to 120 °C.

As for `c1ccc2cc(Cc3ccncc3)ccc2c1`, the melting point was in the range of 66 to 67 °C.

Compound `Cc1cc(-c2ncn3c(C(F)(F)F)cc(-c4ccc(F)c(Cl)c4)nc23)ccn1` had a melting point of 255 °C.

In the case of `CN(C)CCNCCc1ccc(Nc2ncc3c(n2)-c2ccccc2C(c2cccc(Br)c2)C3)cc1` (stereo unspecified), the melting point is 75 to 77 °C.

For the compound `Nc1ccccc1C(=O)NN=Cc1c(O)ccc2ccccc12`, the melting point lay in the range of 188 to 191 °C.

Compound `Cc1cc(C)c2nc3n(c(=O)c2c1)-c1ccc(F)cc1C3=O` came in with a melting point of 275 to 277 °C.

Take `O=C(CCl)Nc1c(S)cccc1Cl`: the melting point was in the range of 186 to 187 °C.

The compound `CC1(C)COc2ccc(C(N)=O)cc21` displayed a melting point of 136 to 138 °C.

Turning to `CC1(C)COC(Cc2ccc3c(c2)C(=O)c2ccccc2CO3)=N1`, the melting point was 101 to 104 °C.

`COc1cccc2[nH]c3c(c12)CC(N(C)C)CC3` (stereo unspecified) returned a melting point of 185 to 189 °C.

For the compound `O=C1CCCCC1C(C[N+](=O)[O-])c1ccc(Cl)c(Cl)c1` (racemic), the melting point fell in the range of 109 to 110 °C.

Turning to `O=C1OCc2c(Cl)cccc21`, the melting point was in the range of 80 to 82 °C.

In turn, `NC(=O)N1C(=O)C(C(=O)c2cccs2)c2cc(F)c(Cl)cc21` (stereo unspecified) showed a melting point of 220 to 221 °C.

With `CS(=O)(=O)c1ccc(-c2cccn2-c2ccc(F)cc2)cc1`, the melting point was 145 to 147 °C.

`Cc1c(C(=O)O)cnn1-c1nc(-c2ccc3ccccc3c2)cs1`: the melting point was in the range of 273 to 274 °C.

Compound `C[C@@H]1Cc2cc(N3C[C@H](CN=[N+]=[N-])OC3=O)ccc2N1C(=O)OCc1ccccc1` showed a melting point of 192 to 193 °C.

In turn, `CNc1nnc(S[Si](C)(C)C)s1` displayed a melting point of 80 to 82 °C.

Turning to `CCc1nn(C2CCCC2)c2c1CCn1c(-c3cccs3)nnc1-2`, the melting point came out at 126 °C.

Compound `OCCON=Cc1ccc2ccccc2c1` showed a melting point of 87 °C.

As to `COC1=C(OC)C(=O)C2=C(CCC(CCOc3ccc(CO)cc3)CC2)C1=O`, the melting point was 57 to 59 °C.

In turn, `CCn1ncc2c3[nH]c4cc(C)nn4c(=O)c3cnc21` yielded a melting point greater than 300 °C.

On to `Cc1oc(-c2ccccc2)nc1CCOc1ccc(CC(C)(C)C(=O)NS(C)(=O)=O)cc1`, for which the melting point lay in the range of 112 to 113 °C.

Consider `CC(=O)n1nc(-c2c(C)cc(C)c([N+](=O)[O-])c2C)n2nc(C(C)(C)C)c(Cl)c12`, for which the melting point lay in the range of 188 to 191 °C.

For `CC(=O)Nc1cccc(-c2ccccc2S(=O)(=O)Nc2onc(C)c2C)c1`, the melting point lay within 168 to 171 °C.

For the compound `Cc1ccc(-n2nc3c(cc2=O)CCCc2sc(C=O)cc2-3)cc1`, the melting point lay within 127 to 129 °C.

Turning to `Cn1ncnc1COc1nn2c(-c3cccc(F)c3)nncc2c1-c1ccccc1F`, the melting point fell in the range of 169 to 170 °C.

Regarding `CC(C)C1CC(=O)C(C(=O)NS(=O)(=O)c2ccccc2)C(=O)C1` (stereo unspecified), the melting point lay in the range of 112 to 114 °C.

`COc1ccccc1N1CCN(C[C@@H](C)N(C(=O)c2ccccc2)C(=O)c2ccccc2)CC1` gave a melting point of 115 to 120 °C.

`COc1ccc(-c2nc3n(c2-c2cccnc2)CCC3)cc1`: the melting point is 164 to 165 °C.

`COCCCN(C(=O)N(CCCl)N=O)C1(O)C(OCC(C)C)OCC(O)C1O` (stereo unspecified): the melting point was 84 to 86 °C.

With `CN1CCN(c2cccc3c2C[C@H](NC(=O)c2ccccc2OS(C)(=O)=O)CC3)CC1`, the melting point lay in the range of 144 to 145 °C.

On to `Cc1ccc(F)c(CSc2nc(N[C@H](C)CO)c3ncc(=O)[nH]c3n2)c1`, for which the melting point was 202 to 204 °C.

For the compound `O=C1NC(=S)SC1=Cc1ccc2c(c1)OCO2`, the melting point was 194 to 195 °C.

`CCOC(=O)c1cc(=O)c2cc(OCCC(C)C)ccc2s1` had a melting point of 83 to 84 °C.

Turning to `CCOc1cc([C@@H](CS(C)(=O)=O)N2Cc3cccc(NCC(C)C)c3C2=O)ccc1OC`, the melting point lay within 122 to 124 °C.

In turn, `O=C1C(=O)c2ccccc2C2=C1SCC1(CCN(C(=O)c3nc4ccccc4[nH]3)CC1)O2` came in with a melting point of 266 to 268 °C.

For the compound `CC1CCCC(C)N1S(=O)(=O)N[C@@H](Cc1ccc(NC(=O)c2c(Cl)cccc2Cl)cc1)C(=O)O` (stereo partly specified), the melting point turned out to be 159 °C.

`O=[N+]([O-])C=C1SCCCN1Cc1cccnc1` displayed a melting point of 143 to 146 °C.

For the compound `COC(=O)c1cc(C=O)cc([N+](=O)[O-])c1`, the melting point was 85 °C.

The compound `CC(C)N1C(=O)[C@@H](CC(=O)NCC#N)O[C@H](c2ccccc2Cl)c2cc(Cl)ccc21` (relative stereo) registered a melting point of 216 to 217 °C.

`CC(C)(C=NO)n1ccnc1` came in with a melting point of 117 to 120 °C.

The compound `CC(C)(C)c1ccc(C(=O)Nc2cn3c(CO)cccc3n2)cc1` yielded a melting point of 229 to 230 °C.

In the case of `CCCCCCN1C(=O)C(=CC(=O)O)SC1=Nc1ccc(Cl)c(Cl)c1`, the melting point was in the range of 156 to 157 °C.

For the compound `CC(=NOCCOc1ccc(CC2OC(=O)N(C(c3ccccc3)(c3ccccc3)c3ccccc3)C2=O)cc1)c1ccc(-c2ccccc2)cc1` (stereo unspecified), the melting point was 193 to 195 °C.

The compound `O=c1[nH]c2ccc([N+](=O)[O-])cc2c(=O)n1CCCN1CC=C(c2ccc(Cl)cc2)CC1` had a melting point of 205 to 207 °C.

`Cc1[nH]c(-c2ccccc2)nc1-c1ccc(Cl)cc1Cl` registered a melting point of 222 to 224 °C.

Consider `COCc1ccc(Cl)cc1C(=O)OC`, for which the melting point fell in the range of 44 to 45 °C.

With `CN1C(=O)CC[C@]2(C)c3ccc(-c4nc5ccccc5[nH]4)cc3CC[C@@H]12`, the melting point was 183 to 186 °C.

Turning to `CN(C)C(=O)CC(c1ccc(OC(F)F)c(OCC2CC2)c1)N1Cc2cccc(N)c2C1=O` (stereo unspecified), the melting point is 70 to 72 °C.

The compound `Nc1ccc(CCC(=O)Nc2cnc3ccccc3c2)cc1[N+](=O)[O-]` registered a melting point of 220 °C.

Consider `CC(C)Oc1ccc(-n2c(C(=O)NCCNC(=O)OC(C)(C)C)cc3cc(Oc4ccc(C(F)(F)F)cn4)ccc32)cc1`, for which the melting point fell in the range of 188 to 190 °C.

Compound `COC(=O)c1ccc(S(=O)(=O)N2CCC(Sc3cc(C(C)(C)C)c(O)c(C(C)(C)C)c3)CC2)n1C` returned a melting point of 181 to 183 °C.

The compound `CC(=O)OCCc1cc2c(s1)CCC1CC(=O)N(c3ccc(C)cc3)N=C21` (stereo unspecified) displayed a melting point of 73 to 75 °C.

For the compound `CC(=O)c1ccc2c(c1)C(Cl)Cc1ccc(F)cc1S2` (stereo unspecified), the melting point is 112 to 114 °C.

`CC(C)(C)N(Cc1ccccc1)CC(O)c1ccc(OCc2ccccc2)c2[nH]c(CO)cc12` (stereo unspecified) returned a melting point of 136 °C.

For `CCCCCCCC(=O)CCC(C)=O`, the melting point was in the range of 40 to 41 °C.

`CN(C)c1ccc(C2SCC(C(=O)O)N2C(=O)OC(C)(C)C)cc1` (mixture of isomers) showed a melting point of 175 °C.

Take `Cc1ccc(OCCOc2ccc(C)cc2)cc1`: the melting point was determined as 134 °C.

Consider `CCc1nc(NC)sc1C(=O)c1ccc(Cl)c([N+](=O)[O-])c1`, for which the melting point is 186 to 190 °C.

Regarding `CCCCCCCCCCCCCCC(=O)C(=O)N[C@@H](CCCC)C(=O)NCC(=O)OC`, the melting point lay in the range of 65 to 67 °C.

Turning to `OC(c1ccc(F)cc1)(c1ccc(F)cc1)C1CCN(Cc2ccccc2)C1` (stereo unspecified), the melting point was 99 to 100 °C.

`CCOC(=O)c1[nH]c(C)c(C(C)CC)c1C` (stereo unspecified): the melting point fell in the range of 102 to 104 °C.

In turn, `Oc1nc(-c2ccc(Cl)cc2)nc2c1CCCC2` yielded a melting point of 255 °C.

In turn, `CC(C)C[C@H](N[C@H](CC(C)C)C(=O)OCc1ccccc1)C(=O)N[C@@H](Cc1ccccc1)C(N)=O` showed a melting point of 145 to 146 °C.

For `CCCCC1CCC(CC(=O)c2ccc(-c3ccc(CC(C)CC)cc3F)cc2)CC1` (single isomer, unassigned; (+)), the melting point is 71.4 to 72.1 °C.

In the case of `O=C1C(=O)c2ccc(Br)cc2C2=C1SCC1(CCN(CC(O)Cc3ccccc3)CC1)O2` (stereo unspecified), the melting point lay within 82 to 83 °C.

`OCC1OC(n2cnc3c(NCCc4csc5ccccc45)ncnc32)C(O)C1O` (stereo unspecified) yielded a melting point of 173 to 174 °C.

Regarding `CS(=O)(=O)c1ccc(-c2[nH]c(I)cc2-c2ccc(F)cc2)cc1`, the melting point was 229 to 231 °C.

`Cc1coc(C)c1-c1nc2ccc(C(=O)c3ccccc3)cc2[nH]1`: the melting point was 203 to 208 °C.

Compound `O=C(NNc1ccc(NC(=S)Nc2ccccc2)cc1)C(F)(F)F` gave a melting point of 172 to 174 °C.

Take `O=C(c1ccccc1)c1cc([N+](=O)[O-])ccc1N(Cc1ccccc1)C(=O)CBr`: the melting point stood at 149 °C.

In the case of `COc1ccc2[nH]c(SC/C=C(\C)CCC=C(C)C)nc2c1`, the melting point is 113 to 116 °C.

In the case of `CCSc1sc(C(=O)N2CCCC2)c2c1-c1oncc1C(C)(C)C2`, the melting point lay in the range of 91 to 93 °C.

As for `Cc1ccc(S(=O)(=O)N2[C@@H](CCc3nc(C)no3)CC[C@H]2c2ccc(F)cc2)cc1` (racemic), the melting point stood at 91 °C.

In turn, `CCCCc1oc2ccccc2c1C(=O)c1ccc(N(CCN(CC)CC)S(=O)(=O)c2cccnc2)cc1` yielded a melting point of 141 to 146 °C.

As for `Oc1cc2c(cc1CNc1ccccc1)OCCC2`, the melting point lay in the range of 135 to 137 °C.

`O=c1nc(-c2ccccc2)c2cc([N+](=O)[O-])ccc2n1CC(F)(F)F` came in with a melting point of 195 to 196 °C.
